Reference: the supplement of paper PMC10307832

Key:
Assay in all cases: relative viability (nuclei count vs DMSO), 5 days (fraction); higher = more cells survive
[1] = compound: CCOC(=O)CCNc1cc(N2CCc3ccccc3CC2)nc(-c2ccccn2)n1 [GSK-J4] + COc1cc2c(Oc3ccc(NC(=O)C4(C(=O)Nc5ccc(F)cc5)CC4)cc3F)ccnc2cc1OCCCN1CCOCC1 [Foretinib] (partner 0.25 µM)
Outline: (§1)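 Lung cancer cell lines in 1536-well plates were dosed by pin tool the day after seeding, either with one drug alone or with a fixed anchor-drug dose plus five library-drug doses (not always all listed) in √10 steps. After 5 days, cells were fixed and their nuclei stained in one step (final 0.05% Triton X-100, 1% formaldehyde, 1 ug/ml Hoechst), then counted on 4× images. Relative viability is the nuclei count in treated wells divided by that in vehicle wells. Values are medians of duplicate plates.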

[2] = compound: CN1CCC(CC1)OC2=CC(=C(C=C2)NC3=NC=C4C(=N3)N(C(=O)N4C)C5CCCC5)OC [AZ3146] + CC1(C)CCC(c2ccc(Cl)cc2)=C(CN2CCN(c3ccc(C(=O)NS(=O)(=O)c4ccc(N[C@H](CCN5CCOCC5)CSc5ccccc5)c(S(=O)(=O)C(F)(F)F)c4)cc3)CC2)C1 [Navitoclax] (partner 0.5 µM)
Outline: as §1

[3] = compound: CN1CCC(CC1)OC2=CC(=C(C=C2)NC3=NC=C4C(=N3)N(C(=O)N4C)C5CCCC5)OC [AZ3146] + Nc1ncn([C@H]2C[C@H](O)[C@@H](CO)O2)c(=O)n1 [Decitabine] (partner 2 µM)
Outline: as §1

[4] = compound: CCOC(=O)CCNc1cc(N2CCc3ccccc3CC2)nc(-c2ccccn2)n1 [GSK-J4] + Nc1ncn([C@H]2C[C@H](O)[C@@H](CO)O2)c(=O)n1 [Decitabine] (partner 2 µM)
Outline: as §1

Work on EBC-1 yielded a relative viability ([1]; first compound 0.5 µM) of 0.0939, a relative viability ([1]; first compound 1.581 µM) of 0.0899 and a relative viability ([1]; first compound 5 µM) of 0.0897. The relative viability ([1]; first compound 15.81 µM) was 0.0966, the relative viability ([1]; first compound 50 µM) was 0.103 and the relative viability ([2]; first compound 0.08 µM) was 0.499. The relative viability ([2]; first compound 0.253 µM) was 0.464, the relative viability ([2]; first compound 0.8 µM) was 0.426 and the relative viability ([2]; first compound 2.53 µM) was 0.412. It also gave a relative viability ([2]; first compound 8 µM) of 0.229.

In the case of EKVX, the relative viability ([1]; first compound 0.5 µM) is reported as 0.757, the relative viability ([1]; first compound 1.581 µM) is reported as 0.221 and the relative viability ([1]; first compound 5 µM) is reported as 0.754. It also gave a relative viability ([1]; first compound 15.81 µM) of 0.315, a relative viability ([1]; first compound 50 µM) of 0.908 and a relative viability ([2]; first compound 0.08 µM) of 0.817. The relative viability ([2]; first compound 0.253 µM) was 0.907, the relative viability ([2]; first compound 0.8 µM) was 0.898 and the relative viability ([2]; first compound 2.53 µM) was 1.02. For the same cell line, the relative viability ([2]; first compound 8 µM) was 1.16, the relative viability ([3]; first compound 0.08 µM) was 0.285 and the relative viability ([3]; first compound 0.253 µM) was 0.304. For the same cell line, the relative viability ([3]; first compound 0.8 µM) was 0.381, the relative viability ([3]; first compound 2.53 µM) was 0.319 and the relative viability ([3]; first compound 8 µM) was 0.286. For the same cell line, the relative viability ([4]; first compound 0.5 µM) was 0.297, the relative viability ([4]; first compound 5 µM) was 0.355 and the relative viability ([4]; first compound 15.81 µM) was 0.324. The relative viability ([4]; first compound 50 µM) was 0.299.

With EMC-BAC-2 the relative viability ([1]; first compound 0.5 µM) was 0.93, the relative viability ([1]; first compound 1.581 µM) was 0.937 and the relative viability ([1]; first compound 5 µM) was 0.685. The relative viability ([1]; first compound 15.81 µM) was 0.982, the relative viability ([1]; first compound 50 µM) was 0.647 and the relative viability ([2]; first compound 0.08 µM) was 1.07. The relative viability ([2]; first compound 0.253 µM) was 1.23, the relative viability ([2]; first compound 0.8 µM) was 1.25 and the relative viability ([2]; first compound 2.53 µM) was 1.21. For the same cell line, the relative viability ([2]; first compound 8 µM) was 1.26, the relative viability ([3]; first compound 0.8 µM) was 1.09 and the relative viability ([3]; first compound 2.53 µM) was 1.02. The relative viability ([3]; first compound 8 µM) was 0.907, the relative viability ([4]; first compound 0.5 µM) was 1 and the relative viability ([4]; first compound 1.581 µM) was 0.862. For the same cell line, the relative viability ([4]; first compound 15.81 µM) was 0.947 and the relative viability ([4]; first compound 50 µM) was 0.869.

With EPLC-272H the relative viability ([1]; first compound 0.5 µM) was 0.723, the relative viability ([1]; first compound 1.581 µM) was 0.547 and the relative viability ([1]; first compound 5 µM) was 0.819. It also gave a relative viability ([1]; first compound 15.81 µM) of 0.514, a relative viability ([1]; first compound 50 µM) of 0.26 and a relative viability ([2]; first compound 0.08 µM) of 0.985. The relative viability ([2]; first compound 0.253 µM) was 0.98, the relative viability ([2]; first compound 0.8 µM) was 1.05 and the relative viability ([2]; first compound 2.53 µM) was 1.37. The relative viability ([2]; first compound 8 µM) was 1.19, the relative viability ([3]; first compound 0.08 µM) was 0.375 and the relative viability ([3]; first compound 0.253 µM) was 0.379. It also gave a relative viability ([3]; first compound 0.8 µM) of 0.396, a relative viability ([3]; first compound 2.53 µM) of 0.368 and a relative viability ([3]; first compound 8 µM) of 0.418. It also gave a relative viability ([4]; first compound 0.5 µM) of 0.408, a relative viability ([4]; first compound 1.581 µM) of 0.33 and a relative viability ([4]; first compound 5 µM) of 0.448. For the same cell line, the relative viability ([4]; first compound 15.81 µM) was 0.339 and the relative viability ([4]; first compound 50 µM) was 0.308.

Cell Line H3255 has a relative viability ([1]; first compound 0.5 µM) of 0.856, a relative viability ([1]; first compound 1.581 µM) of 0.85 and a relative viability ([1]; first compound 5 µM) of 0.846. The relative viability ([1]; first compound 15.81 µM) was 0.844, the relative viability ([1]; first compound 50 µM) was 0.804 and the relative viability ([2]; first compound 0.08 µM) was 0.527. The relative viability ([2]; first compound 0.253 µM) was 0.35, the relative viability ([2]; first compound 0.8 µM) was 0.582 and the relative viability ([2]; first compound 2.53 µM) was 0.628. It also gave a relative viability ([2]; first compound 8 µM) of 0.467, a relative viability ([3]; first compound 0.08 µM) of 0.604 and a relative viability ([3]; first compound 0.253 µM) of 0.805. For the same cell line, the relative viability ([3]; first compound 0.8 µM) was 0.562, the relative viability ([3]; first compound 2.53 µM) was 0.678 and the relative viability ([3]; first compound 8 µM) was 0.604. For the same cell line, the relative viability ([4]; first compound 0.5 µM) was 0.619, the relative viability ([4]; first compound 5 µM) was 0.593 and the relative viability ([4]; first compound 15.81 µM) was 0.463. For the same cell line, the relative viability ([4]; first compound 50 µM) was 0.409.

HARA gave a relative viability ([1]; first compound 0.5 µM) of 0.863, a relative viability ([1]; first compound 15.81 µM) of 0.805 and a relative viability ([1]; first compound 50 µM) of 0.751. The relative viability ([2]; first compound 0.08 µM) was 1.13, the relative viability ([2]; first compound 0.253 µM) was 1.08 and the relative viability ([2]; first compound 0.8 µM) was 1.13. The relative viability ([2]; first compound 2.53 µM) was 1.13, the relative viability ([2]; first compound 8 µM) was 1.11 and the relative viability ([3]; first compound 0.08 µM) was 0.493. The relative viability ([3]; first compound 0.253 µM) was 0.563, the relative viability ([3]; first compound 0.8 µM) was 0.481 and the relative viability ([3]; first compound 2.53 µM) was 0.487. The relative viability ([3]; first compound 8 µM) was 0.478, the relative viability ([4]; first compound 0.5 µM) was 0.506 and the relative viability ([4]; first compound 1.581 µM) was 0.49. For the same cell line, the relative viability ([4]; first compound 15.81 µM) was 0.506 and the relative viability ([4]; first compound 50 µM) was 0.369.

With HCC-15 the relative viability ([1]; first compound 0.5 µM) was 0.949, the relative viability ([1]; first compound 5 µM) was 0.898 and the relative viability ([1]; first compound 15.81 µM) was 0.854. It also gave a relative viability ([1]; first compound 50 µM) of 0.69, a relative viability ([2]; first compound 0.08 µM) of 0.725 and a relative viability ([2]; first compound 0.253 µM) of 0.659. The relative viability ([2]; first compound 0.8 µM) was 0.703, the relative viability ([2]; first compound 2.53 µM) was 0.718 and the relative viability ([2]; first compound 8 µM) was 0.727. It also gave a relative viability ([3]; first compound 0.08 µM) of 0.529, a relative viability ([3]; first compound 0.253 µM) of 0.59 and a relative viability ([3]; first compound 0.8 µM) of 0.642. It also gave a relative viability ([3]; first compound 2.53 µM) of 0.678, a relative viability ([3]; first compound 8 µM) of 0.39 and a relative viability ([4]; first compound 0.5 µM) of 0.696. The relative viability ([4]; first compound 1.581 µM) was 0.492, the relative viability ([4]; first compound 5 µM) was 0.581 and the relative viability ([4]; first compound 15.81 µM) was 0.536. For the same cell line, the relative viability ([4]; first compound 50 µM) was 0.38.

Work on HCC-44 yielded a relative viability ([2]; first compound 0.08 µM) of 0.877, a relative viability ([2]; first compound 0.253 µM) of 1.04 and a relative viability ([2]; first compound 0.8 µM) of 0.985. For the same cell line, the relative viability ([2]; first compound 2.53 µM) was 1.01, the relative viability ([2]; first compound 8 µM) was 1.01 and the relative viability ([3]; first compound 0.08 µM) was 0.912. For the same cell line, the relative viability ([3]; first compound 0.253 µM) was 0.889, the relative viability ([3]; first compound 0.8 µM) was 1.03 and the relative viability ([3]; first compound 2.53 µM) was 0.943. It also gave a relative viability ([3]; first compound 8 µM) of 0.958, a relative viability ([4]; first compound 0.5 µM) of 0.932 and a relative viability ([4]; first compound 1.581 µM) of 0.716. The relative viability ([4]; first compound 5 µM) was 0.823, the relative viability ([4]; first compound 15.81 µM) was 1.03 and the relative viability ([4]; first compound 50 µM) was 1.06.

Cell Line HCC-78 has a relative viability ([1]; first compound 0.5 µM) of 0.571, a relative viability ([1]; first compound 1.581 µM) of 0.508 and a relative viability ([1]; first compound 5 µM) of 0.675. It also gave a relative viability ([1]; first compound 15.81 µM) of 0.589, a relative viability ([1]; first compound 50 µM) of 0.631 and a relative viability ([2]; first compound 0.253 µM) of 0.795. For the same cell line, the relative viability ([2]; first compound 0.8 µM) was 0.718, the relative viability ([2]; first compound 2.53 µM) was 0.899 and the relative viability ([2]; first compound 8 µM) was 0.736. It also gave a relative viability ([3]; first compound 0.253 µM) of 0.746, a relative viability ([3]; first compound 0.8 µM) of 0.623 and a relative viability ([3]; first compound 2.53 µM) of 0.744. It also gave a relative viability ([3]; first compound 8 µM) of 0.728, a relative viability ([4]; first compound 0.5 µM) of 0.726 and a relative viability ([4]; first compound 1.581 µM) of 0.633. The relative viability ([4]; first compound 5 µM) was 0.71, the relative viability ([4]; first compound 15.81 µM) was 0.549 and the relative viability ([4]; first compound 50 µM) was 0.621.
